{"source": "patent US20140303242A1", "about": "“Sparstolonin B Based Pharmaceutical Agent to Treat Pathological Angiogensis” (University of South Carolina, priority 2013, published 2014)", "key": {"HCAECs": {"system": "HCAECs", "assay": "Microarray gene expression analysis (HCAECs)", "format": "cell-based, human", "conditions": "24 h", "method": "Confluent plates (100×20 mm polystyrene, tissue culture-treated petri plates coated with 0.1% gelatin, 75% confluent) of HUVECs and HCAECs (four plates for HUVECs, n=2, and six plates for HCAECs, n=3) were chosen for the microarray experiments. Half of the plates received complete growth medium (10% fetal bovine serum with endothelial mitogen) containing vehicle control (0.1% DMSO), and the remaining plates received complete growth medium containing 100 μM SsnB. The plates were incubated for 24 h to allow SsnB to have an effect on cellular gene expression. Following incubation, RNA isolation was completed with the RNeasy Mini kit from Qiagen. The cells were lysed, and RNA was isolated by using the RNeasy spin columns and following the protocol provided by Qiagen. Purified RNA was sent to the Medical University of South Carolina Proteogenomics Facility for microarray analysis. The GeneChip Human Genome U133 Plus 2.0 Array was utilized to track changes in gene expression due to SsnB treatment. Complete data was uploaded to the NCBI Gene Expression Omnibus database (accession number GSE44598).\nMicroarray data analysis, including data normalization (robust multi-array average), identification of differentially expressed genes (comparative analyses with dChip software), and heat map construction, was carried out to determine how SsnB affects gene expression and affected pathways (n=2 for HUVECs and n=3 for HCAECs). After a careful analysis of the microarray data, several key genes were chosen for qRT-PCR to verify the gene expression results. The genes were chosen based on the following criteria: fold change ≧2, p<0.05, unpaired t-test with a false discovery rate approximating 0%, appearing in both data sets (HUVECs and HCAECs), and gene function relating to cell proliferation and/or angiogenesis. For qRT-PCR, the expression levels were normalized to the housekeeping gene GAPDH, and RNA levels were compared between groups with the ΔΔCt method."}, "HUVECs [1]": {"system": "HUVECs", "assay": "Matrigel tube formation assay (HUVECs)", "format": "cell-based, human", "conditions": "concentrations between 1 and 100 μM, 4 h, p<0.05", "method": "To initially determine if SsnB inhibited pro-angiogenic cell functions, a tube formation assay with Matrigel was performed. Growth factor reduced Matrigel (BD Biosciences, Bedford, Mass.) was added to the wells of a 96 well polystyrene culture plate and incubated at 37° C. for 30 minutes. Cells (HUVECs, HCAECs, or HMVECs at passage 2 to 4) were added to each well to reach a final number of 20,000 cells per well. SsnB was added to the wells at a concentration of 1, 10, or 100 μM. Endothelial cell medium with DMSO (0.1%) was used as a vehicle control. Each group contained 4 replicates. The plates were placed in an incubator for 4 h. During the incubation, the endothelial cells formed elongated structures called cords, also known as tubes. After 4 h, neutral buffered formalin was added to fix the cells. Pictures of three non-overlapping fields were taken from each well. The lengths of single cell endothelial cords were measured with Image-Pro Plus (Media Cybernetics, Silver Spring, Md.), and the sum of tube lengths for each well was determined. The average total length and standard deviation for each group were determined, and the appropriate statistical tests (ANOVA and Newman-Keuls) were completed. The tube formation assay was replicated three times for both HUVECs and HCAECs. The assay was also repeated with cardiac HMVECs."}, "[2]": {"system": "chick chorioallantoic membrane (CAM)", "assay": "Chick chorioallantoic membrane (CAM) assay", "format": "in vivo", "conditions": "methylcellulose disc, 100 micromolar SsnB", "method": "To investigate the effects of SsnB on in vivo angiogenesis, a chick chorioallantoic membrane (CAM) assay was utilized. Chick embryos were exposed to methylcelluose discs containing vehicle control (DMSO) or 100 micromolar SsnB.\nMethylcellulose discs were created with a solution of 0.5% methylcellulose (diluted in sterile deionized water). A methylcellulose solution of 100 micromolar SsnB was made by adding 1.1 microliters of stock SsnB (93 mM) to 1 ml 0.5% methylcellulose. A vehicle control solution was created by adding 1 microliter of dimethyl sulfoxide (DMSO) to 1 ml 0.5% methylcellulose. Discs were created by placing 20 microliter droplets of SsnB or vehicle control solution onto polytetrafluoroethylene tape (to minimize sticking during drying) and allowed to dry under a laminar flow hood.\nThe fertilized eggs were placed in a humidified egg incubator with forced air circulation at 37° C. The eggs were automatically rotated every three hours. After 4 days of incubation, the eggs were removed and cracked. Chick embryos with intact yolks were placed in 100 mm petri plates. Each petri plate was placed in a weigh boat containing 13 ml Moscona's buffer and covered with cellophane wrap with two holes for air circulation. The plates were placed in a water-jacketed incubator (37 C, 5% CO2) for 2 days. After 2 days of incubation, the methylcellulose discs containing either SsnB or vehicle control were placed on top of the CAM of each embryo in the right upper quadrant in an area near the allantoic vessels. After 2 additional days of incubation, the CAMs were examined and photographed with a dissecting stereomicroscope. Images were taken of areas containing the discs and non-treated regions. Each group contained seven embryos (calculated with PS 3.0.5 software, effect size of 50%, standard deviation of 30%, statistical power of 0.8, and α=0.05). The CAM assay was completed two times.\nImages were analyzed with ImagePro Plus software. Blood vessel length and branching number were utilized to measure the effect of SsnB on angiogenesis. The vessel length was measured for areas containing the discs and non-treated regions. Normalized vessel length was calculated by dividing the length values of the treated regions by those of the non-treated regions. The same process was repeated for measuring the branching number."}, "HUVECs [3]": {"system": "HUVECs", "assay": "Cell cycle analysis, propidium iodide flow cytometry", "format": "cell-based, human", "method": "Cell cycle analysis was performed using propidium iodide staining and flow cytometry. HUVECs (approximately 75% confluent) cultured in 6 well polystyrene culture plates coated with 0.1% gelatin were serum starved for 24 hours in low serum medium containing 0.5% fetal bovine serum and no endothelial cell mitogen to synchronize the cells in the G1/S phase. After 24 hours, the low serum medium was replaced with treatments of either 100 μM SsnB or vehicle control (0.1% DMSO) diluted in complete growth medium (10% fetal bovine serum with endothelial cell mitogen) in triplicate. The treated cells were incubated for 24, 30, and 36 hours. After incubation, the cells were trypsinized, transferred to 5 ml polysytrene round bottom tubes (12×75 mm), and centrifuged. The medium was aspirated, and the cells were washed with PBS. After fixing the cells with ice-cold 70% ethanol for 15 min, the cells were centrifuged and stained with propidium iodide for 30 min. The samples were then analyzed with a flow cytometer (Beckman Coulter FC500). The unstained and stained cell groups were used to calibrate the settings on the flow cytometer. The data were collected and analyzed with ModFit software."}, "[4]": {"conditions": "synchronized HUVECs, 100 μM SsnB, 24, 30 and 36 hours, vs vehicle control"}}, "note": "Entries after “also recorded” stand apart in the source; their conditions may differ.", "data": [{"smiles": "O=c1occ2c3c(ccc(O)c13)Oc1ccc(O)cc1-2", "note": "[SsnB, Sparstolonin B]", "values": [{"measurement": "ALDH3A1 Microarray Fold change value", "setting": "HCAECs; 100 μM SsnB vs vehicle control", "result": 8.8}, {"measurement": "ANLN Microarray Fold change value", "setting": "HCAECs; 100 μM SsnB vs vehicle control", "result": 0.11}, {"measurement": "CCNB1 Microarray Fold change value", "setting": "HCAECs; 100 μM SsnB vs vehicle control", "result": 0.16}, {"measurement": "CCNE2 Microarray Fold change value", "setting": "HCAECs; 100 μM SsnB vs vehicle control", "result": 0.38}, {"measurement": "CDC2 Microarray Fold change value", "setting": "HCAECs; 100 μM SsnB vs vehicle control", "result": 0.20}, {"measurement": "CDC6 Microarray Fold change value", "setting": "HCAECs; 100 μM SsnB vs vehicle control", "result": 0.18}, {"measurement": "CDKN3 Microarray Fold change value", "setting": "HCAECs; 100 μM SsnB vs vehicle control", "result": 0.18}, {"measurement": "DIAPH3 Microarray Fold change value", "setting": "HCAECs; 100 μM SsnB vs vehicle control", "result": 0.38}, {"measurement": "HMMR Microarray Fold change value", "setting": "HCAECs; 100 μM SsnB vs vehicle control", "result": 0.20}, {"measurement": "KITLG Microarray Fold change value", "setting": "HCAECs; 100 μM SsnB vs vehicle control", "result": 2.1}, {"measurement": "number of differentially expressed genes in response to SsnB exposure", "setting": "HCAECs; 100 μM, fold change ≧2, p<0.05", "result": 356, "unit": "genes"}, {"measurement": "HUVEC tube formation", "setting": "HUVECs [1]", "result": "dose-dependent inhibition"}, {"measurement": "blood vessel diameter and size", "setting": "[2]; 2 days", "result": "decrease"}, {"measurement": "normalized branch number", "setting": "[2]; 2 days, vs vehicle control", "result": "significant decrease; also recorded: significant reduction"}, {"measurement": "normalized blood vessel length (capillary length)", "setting": "[2]; 2 days, vs vehicle control, p<0.05", "result": "significant decrease; also recorded: significant reduction"}, {"measurement": "viability or morphology of the embryos", "setting": "[2]; relative to vehicle control", "result": "no effect"}, {"measurement": "G2/M blockage", "setting": "HUVECs [3]; non-synchronized (no serum starvation) HUVECs", "result": "G2/M blockage was observed"}, {"measurement": "percentage of cells in the G1 phase", "setting": "HUVECs [3]; [4]", "result": "increase"}, {"measurement": "percentage of cells in the S phase", "setting": "HUVECs [3]; [4]", "result": "decrease"}]}]}
